Reference: US20230339854A1, “Negative Allosteric Modulation of GluN3-Containing N-Methyl-D-Aspartate Receptors” (Emory University, priority 2020, published 2023)
Converted amounts (≈) assume the structure as drawn. “Also recorded” adds a separate entry of the source.

What was measured:
[1] = target: T1, rat GluN1-4a^FA,TL/GluN3B receptors (Rattus norvegicus, UniProt Q8VHN2); assay: Two-electrode voltage-clamp recordings of GluN1-4a^FA,TL/GluN3B receptors (Xenopus oocytes); assay type: cell-based
T1 construct: Human GluN3A (NP_597702.2) and rat GluN3B (NP_579842.2) were synthesized and subcloned into SP6 plasmids; expressed in transfected cells; host or cells: Xenopus laevis oocytes, cRNA injection
Description: cDNA encoding human wild-type (WT) GluN1-1a (GenBank accession numbers NP_015566, hereafter GluN1) and rat GluN1-1a (NP_058706.1) were synthesized and subcloned into pGEMHE plasmid; some experiments used the rat splice variant GluN1-4a (NP_001257531.1). Human GluN3A (NP_597702.2) and rat GluN3B (NP_579842.2) were synthesized and subcloned into SP6 plasmids. For most experiments, human GluN1 was co-expressed with human GluN3A, except for mutagenesis experiments where rat GluN1 was co-expressed with human GluN3A. Rat GluN1-4a was always expressed with rat GluN3B.
Defolliculated Xenopus laevis oocytes (stage V-VI) were obtained from Ecocyte BioScience (Austin, Texas), or prepared from commercially available Xenopus ovaries (Xenopus 1, Dexter, MI) as previously described (Hansen, et al., Mol. Pharmacol., 2013). A Drummond Nanoject II (Broomall, PA) was used to inject oocytes with cRNAs encoding GluN1 and GluN3 at a 1:3 ratio in RNase-free water. The cRNA was diluted as needed to give responses with amplitudes ranging between 200-2000 nA (0.2-10 ng total cRNA). […] Recording electrodes were filled with 0.3-3.0 M KCl, and current responses were recorded at a holding potential of −40 mV. […]

[2] = Maximum solubility by nephelometry; assay type: physicochemical; conditions: aqueous buffer, kinetic from dmso stock; oocyte recording buffer (pH 7.4)
Method: The maximum solubility for the synthesized compounds was determined using a BMG Labtech Nephelostar™ nephelometer according to the manufacturer's instructions. For example, EU1180-438 was taken up in DMSO to prepare a 10 mM stock solution. The 10 mM solution was serially diluted into eleven concentrations (10, 5, 2.5, 1.25, 0.625, 0.3125, 0.1563, 0.0781, 0.0391, 0.0193, and 0.0098 mM) at the top of a clear-bottom 96-well plate. These were then each distributed into the subsequent 7 wells in 2.5 μL increments and diluted 100-fold (2.5 μL to 250 μL) with oocyte recording buffer (pH 7.4) into concentrations of 100, 50, 25, 12.5, 6.25, 3.125, 1.563, 0.781 0.391, 0.193, and 0.098 μM. The 96-well plate was shaken gently for 90 minutes before analysis.

[3] = tested on: GluN1/GluN2 NMDA receptors (GluN2A, GluN2B, GluN2C, GluN2D); assay: Recombinant GluN1/GluN2 NMDA receptors in Xenopus oocytes (selectivity); assay type: cell-based, rat
[4] = tested on: GluN1/GluN2 NMDA receptors; assay: Whole-cell patch-clamp of NMDA-activated responses in hippocampal CA1 pyramidal cells, acute brain slices; assay type: cell-based, mouse; conditions: 30 μM; 0.5 mM NMDA
glycine receptors = target: T2, glycine receptors (Rattus norvegicus, UniProt P07727); assay: Glycine receptors in Xenopus oocytes (selectivity); assay type: cell-based; conditions: 20 μM
T2 construct: expressed in transfected cells; host or cells: Xenopus laevis oocytes; cDNA from Dr. D. Weiss
T2 sequence (P07727 29-457): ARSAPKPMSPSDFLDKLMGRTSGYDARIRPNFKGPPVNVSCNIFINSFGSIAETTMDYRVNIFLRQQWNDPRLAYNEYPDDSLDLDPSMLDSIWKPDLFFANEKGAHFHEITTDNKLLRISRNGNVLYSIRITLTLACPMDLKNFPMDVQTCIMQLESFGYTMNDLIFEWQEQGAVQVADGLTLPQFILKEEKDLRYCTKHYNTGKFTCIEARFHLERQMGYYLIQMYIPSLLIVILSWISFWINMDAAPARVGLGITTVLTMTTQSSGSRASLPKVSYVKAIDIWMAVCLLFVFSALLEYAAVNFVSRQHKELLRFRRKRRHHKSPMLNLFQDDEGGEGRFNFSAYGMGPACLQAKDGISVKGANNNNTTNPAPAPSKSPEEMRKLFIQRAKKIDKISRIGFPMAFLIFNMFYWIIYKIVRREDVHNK
Method: The numbers of oocytes recorded are in parentheses.
The cDNA was linearized by restriction enzymes (Thermo Fisher Scientific, Lithuania), and the cRNA encoding the receptor subunits was synthesized from the linear template cDNA using the mMESSAGE mMACHINE kit (Invitrogen/Thermo Fisher Scientific, Lithuania). The α1β1δγ nAChR subunits were injected at a 1:1:1:1 ratio while α4 […] nAChR subunits were injected at a 1:1 ratio. The cDNAs encoding GABA and glycine subunits were provided by Dr. D. Weiss (University of Texas Health Science Center at San Antonio). The cDNAs encoding nAChR subunits were provided by Drs. R. Papke (University of Florida) and S. Heinemann (Salk Institute). The cDNA encoding the purinergic receptor was provided by Dr. R. Hume (University of Michigan).
Responses in the presence of EU1180-438 were expressed as a percent of control calculated as the average of the responses before and after EU1180-438 exposure. […]
Defolliculated Xenopus laevis oocytes (stage V-VI) were obtained from Ecocyte BioScience (Austin, Texas), or prepared from commercially available Xenopus ovaries (Xenopus 1, Dexter, MI) as previously described (Hansen, et al., Mol. Pharmacol., 2013). […] Recording electrodes were filled with 0.3-3.0 M KCl, and current responses were recorded at a holding potential of −40 mV.

T1 sequence (Q8VHN2 25-1002, other chains not shown): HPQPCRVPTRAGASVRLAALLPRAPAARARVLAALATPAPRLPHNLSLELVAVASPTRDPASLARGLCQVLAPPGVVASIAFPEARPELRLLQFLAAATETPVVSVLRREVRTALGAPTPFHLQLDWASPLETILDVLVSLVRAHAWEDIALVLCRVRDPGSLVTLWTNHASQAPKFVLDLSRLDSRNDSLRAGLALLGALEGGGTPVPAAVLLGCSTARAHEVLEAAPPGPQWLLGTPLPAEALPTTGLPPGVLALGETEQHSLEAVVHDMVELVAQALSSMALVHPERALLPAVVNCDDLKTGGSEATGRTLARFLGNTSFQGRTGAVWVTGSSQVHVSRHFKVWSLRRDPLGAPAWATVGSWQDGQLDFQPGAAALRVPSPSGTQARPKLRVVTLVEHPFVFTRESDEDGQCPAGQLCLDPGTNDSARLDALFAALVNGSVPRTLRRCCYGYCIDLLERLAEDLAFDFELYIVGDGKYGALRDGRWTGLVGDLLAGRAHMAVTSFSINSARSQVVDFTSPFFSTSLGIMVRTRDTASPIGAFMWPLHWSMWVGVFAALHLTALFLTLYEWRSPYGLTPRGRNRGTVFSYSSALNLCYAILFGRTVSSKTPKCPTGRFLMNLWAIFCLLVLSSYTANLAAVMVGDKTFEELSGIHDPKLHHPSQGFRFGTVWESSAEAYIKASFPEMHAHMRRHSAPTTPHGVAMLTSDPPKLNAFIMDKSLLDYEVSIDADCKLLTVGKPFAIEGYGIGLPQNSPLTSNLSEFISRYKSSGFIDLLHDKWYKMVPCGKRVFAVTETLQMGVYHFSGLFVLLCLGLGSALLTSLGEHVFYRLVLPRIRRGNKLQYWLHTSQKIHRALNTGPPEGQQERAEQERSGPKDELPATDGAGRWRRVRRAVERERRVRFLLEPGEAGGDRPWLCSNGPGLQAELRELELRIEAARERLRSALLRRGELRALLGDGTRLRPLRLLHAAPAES

COc1ccc(OCC(c2ccc(OC)cc2)N2Cc3ccccc3C2=O)cc1 (racemic) [EU1180-438, 2-(2-(4-methoxyphenoxy)-1-(4-methoxyphenyl)ethyl)isoindolin-1-one]
IC50 [1]: 5.2 µM | inhibition at saturating concentrations [1]: 82% | solubility at 90 min [2]: 37 µM (≈ 14.4 µg/mL) | activity toward recombinant GluN1/GluN2 NMDA receptors (GluN2A-D) [3]: no detectable activity | activity at GluN1/GluN2 NMDA receptors ([3]; 20 μM, rat GluN1-1a/GluN2A-D): virtually no activity | effect on NMDA-activated responses mediated by GluN1/GluN2 NMDA receptors [4]: not modulated; also recorded: did not affect | activity at glycine receptors (glycine receptors): virtually no activity
